Assay results: article PMC3172082 (Nature, 2009)
Values joined by “and” are separate entries in the source; they are usually repeats but may differ in a detail not shown here. Equal entries are not always repeated.

Tests used:
mycobacterial proteasome = mycobacterial proteasome (Mycobacterium bovis, UniProt A1KKF3); assay: cell-based; parameters: species or system Mycobacterium bovis var. BCG; conditions: for inhibition at 50 µM: read-out: inhibition of mycobacterial proteasome activity in intact BCG
Chain of mycobacterial proteasome (A1KKF3 whole entry, looked up): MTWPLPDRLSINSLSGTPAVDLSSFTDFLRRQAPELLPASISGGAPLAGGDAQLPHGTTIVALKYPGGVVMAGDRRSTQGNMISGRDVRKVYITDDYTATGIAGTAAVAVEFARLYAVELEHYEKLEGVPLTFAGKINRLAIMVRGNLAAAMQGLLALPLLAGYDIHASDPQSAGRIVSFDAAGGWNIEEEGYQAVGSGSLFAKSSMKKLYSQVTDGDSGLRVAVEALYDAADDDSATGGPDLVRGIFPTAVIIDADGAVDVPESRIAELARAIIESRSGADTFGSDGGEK

BCG = format: cell-based, Mycobacterium bovis var. BCG
[1] = tested on: human monocyte-derived macrophages; assay: Cytotoxicity to human monocyte-derived macrophages; format: cell-based; conditions: 7 days incubation; GL5 and HT1171 up to 75 μM
Mtb Erdman = format: cell-based, Mycobacterium tuberculosis; conditions: non-replicating Mtb
Mtb 20SOG = format: biochemical, Mycobacterium tuberculosis; conditions: by partition ratios
Mtb20SOG = Mtb20SOG (Mycobacterium tuberculosis, UniProt P9WHT9); assay: High throughput screen, Mtb20SOG hydrolysis of Suc-LLVY-AMC; format: biochemical; conditions: 33 μM test compounds
Chain of Mtb20SOG (P9WHT9 whole entry, looked up): as the sequence (A1KKF3 whole entry, looked up) above

SMILES | reduction of proteasome activity in intact BCG (mycobacterial proteasome) | inhibition at 50 µM (mycobacterial proteasome) [%] | killing of BCG (in words) (BCG) | toxicity to human macrophages [1] | Mtb killed over 4 days in synergy with nitric oxide (Mtb Erdman; dose-dependent, 50 μM DETA-NO) | fold more effective against Mtb proteasomes than human proteasomes (Mtb 20SOG) [fold] | activity in screen against Mtb20SOG (Mtb20SOG) | mycobactericidal activity compared with GL5 and HT1171 (in words) (Mtb Erdman; DETA-NO, 4 days)
CSc1sc(C)cc1-c1nsc(=O)o1 [GL5, 5-(5-methyl-2-(methylthio)thiophen-3-yl)-1,3,4-oxathiazol-2-one] | > 80% and ~ 50% | ~90 | killed BCG alone and in synergy with sub-bacteriostatic fluxes of nitric oxide | no apparent toxicity | 1.5-2.5 log10 | > 1000 |  | 
Cc1cc(-c2nsc(=O)o2)c(S(C)(=O)=O)s1 [GL6, 5-(5-methyl-2-(methylsulfonyl)thiophen-3-yl)-1,3,4-oxathiazol-2-one] |  |  |  |  |  |  | inactive | 
CC(C)C[C@H](NC(=O)[C@H](Cc1ccccc1)NC(=O)c1cnccn1)B(O)O [bortezomib, reference compound] |  | 52 |  | toxic |  |  |  | less mycobactericidal
